Experimental findings from patent publication US20110274808A1, “METHODS FOR INCREASING THE PALATABILITY OF COMPANION ANIMAL FOOD COMPOSITIONS” (Hill's Pet Nutrition, Inc., priority 2008, published 2011) are described below.

The nature of data set [1]: Six-month feeding safety study in dogs (body weight, physical examination, serum biochemistry, hematology). It counts as in vivo. An excerpt: (§1) Thirty (30) adult, random source, dogs were utilized for this study. Dogs were at least 10 months of age, not pregnant, not lactating and of reasonable body weight prior to start of test. Animals were randomized into 5 groups for dietary treatment with 3 males and 3 females per each group.
All dogs were fed a control food (0 ppm dl-alpha-lipoic acid added) that met or exceeded all recommendations for nutrients as proposed by the American Association of Feed Control Officials (AAFCO 2000) during a 2 week prefeeding period (Table 2). […]
Test foods were the sole source of nutrients except for water. […] After dogs were selected and initial body weights taken, a food dose was calculated for each dog based on the expected ME of the food. Initial food dose calculations were based on the maintenance energy requirement (MER) for the dog modified by a factor to account for normal activity as calculated by the following formula: […]
Dogs were weighed weekly and had food doses adjusted as needed in order to feed enough food to maintain their optimal body weight. Optimal body weight was determined to be 3 on a 5 point scale. […] All measures of body weight and food intake were recorded. […]
Comparison of values for clinical chemistry, hematology and body weights vs baseline were analyzed by way of paired t-test on SAS for windows with significance set at P<0.05. […]

In data set [2] the test system is GSH:GSSG ratio. Briefly: Change in GSH:GSSG ratio in blood lymphocytes of dogs fed dl-alpha-lipoic acid in extruded food. In kind it is in vivo, dog.
Excerpt: as §1
All dogs were fed a control food (0 ppm dl-alpha-lipoic acid added) that met or exceeded all recommendations for nutrients as proposed by the American Association of Feed Control Officials (AAFCO 2000) during a 2 week prefeeding period (Table 2). Following the prefeeding period dogs were randomized into 5 treatment groups with one of the following dl-alpha lipoic acid target-inclusions (dry matter basis): 0 ppm, 150 ppm, 1500 ppm, 3000 ppm, 4500 ppm. In all diets, control and alpha lipoic acid, Vitamin E was added and was present at a level of 600-1000 International Units and Vitamin C was added at levels of 100-200 ppm.
Blood was collected aseptically for complete blood count, and blood biochemistry analysis 2 weeks prior to start and again at 0, 28, 56, 84, 112, 140 and 168 days of the study. In addition, 15 ml of whole blood was collected for isolation of lymphocytes at day 0, 28 and 84 of the dietary intervention.
Heparinzed whole blood was layered onto a 50 ml Accuspin conical centrifuge tube (Sigma Chemical) and an equal volume of Phosphate buffered saline (PBS) was added. Samples were centrifuged at 700 g for 30 minutes without brake. The monocyte layer was harvested, transferred to a 15 ml conical centrifuge tube, resuspended in 1-3 ml of PB, and centrifuged as before (First wash). A second wash was performed as the first wash. Finally, cells were harvested and suspended in perchloric acid (10% w/v) and frozen at −70° C. until analysis.
Samples were transferred from −70° C. freezer into a cooler with dry ice in it. Vials were centrifuged at 12,000 rpm for 5 minutes in a refrigerated centrifuge. An aliquot of supernatant for glutathione (GSH) analysis was transferred to a conical test tube.
Derivatization of the acid soluble extracts was by the method of Reed and coworkers (Fariss et al) as modified by Jones (Jones et al)
Briefly, 150 μL extract or external standards were added into a 1.5 ml Eppendorf tube followed by addition of 20 μγ-Glu-Glu internal standard and 50 μL IAA added followed by mixing. The solution was adjusted to pH about 10 (purple color) by using KOH—KHCO3 working solution. Solutions were incubated 1 hr. under room temperature in the dark. Sanger's reagent was added at the same volume as of the total volume and the solution was incubated overnight (20 hrs) in the dark at room temperature.
After incubation, the solution was centrifuged at 12000 rpm for 5 minutes with the supernatant transferred into another 1.5 ml eppendorf tube.
Solvents and separation conditions were as described (Fariss, Jones). Levels of GSH and GSSG were quantified relative to authentic standards. Gamma-glutamyl-glutamate was used as an internal standard to assess derivatization efficiency.
Comparison of values for clinical chemistry, hematology and body weights vs baseline were analyzed by way of paired t-test on SAS for windows with significance set at P<0.05. Means of values at each measured time point were separated by a one-way ANOVA with significance set at P<0.05. The difference in GSH:GSSG between day 84 and baseline were analyzed between groups by way of SAS for windows in a one-way ANOVA with significance set at P<0.05.

The nature of data set [3]: Change in body composition of dogs over 90 days. In kind it is in vivo, dog. The note with it: 90 day treatment period. The source says:
Table 4 illustrates the change in body composition of dogs fed a control diet compared with dogs fed a control plus fish oil and a control plus lipoic acid.

Each structure is given as a SMILES string.

In the case of `O=C(O)CCCCC1CCSS1` (racemic) [DL-Alpha Lipoic Acid, dl-alpha-lipoic acid], the “Safety of chronic feeding in diet” value in data set [1] (dog, in vivo) is “safe and effective”. In data set [1] (dogs, 4500 ppm inclusion group, 6 months), the Body weight result is recorded as “some weight loss occurred initially”. In addition, the “Difference in GSH:GSSG ratio - day 0 to day 84” value in data set [2] (dogs, 150 ppm inclusion in extruded food) is on record as 70 +/− 20; in data set [2] (dogs, 1,500 ppm inclusion in extruded food), 24 +/− 7; in data set [2] (dogs, 3,000 ppm inclusion in extruded food), 10 +/− 4; in data set [2] (dogs, 4,500 ppm inclusion in extruded food), 50 +/− 36. The “Effect on reduced glutathione (GSH) to oxidized glutathione (GSSG) ratio” value in data set [2] (dogs, chronic feeding in diet) was “improves”. In addition, the “Change in weight compared with control and fish oil diets” value in data set [3] is “greatest change in weight”.
